Laboratory results published in PubChem BioAssay (NCI).
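Cells were grown in 96-well plates and exposed to each compound for 48 hours at five concentrations; endpoints were interpolated linearly between bracketing concentrations, or set to the highest concentration if not reached. TGI: total growth inhibition.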

System: P388 leukemia
Assay: NCI tumour cell line growth inhibition, 48 h

NC(=O)c1[nH]nc(C2OC(CO)C(O)C2O)c1O (stereo unspecified)
TGI: 802 µM
